This assay relates to C. elegans.
[1] abbreviates: Table S2, C. elegans SS assay, 110 μM, 0 h, averages of 4 data points.
Setting [2] is: Table S2, C. elegans SS assay, 110 μM, 24 h, averages of 4 data points.

Like-named read-outs stand apart in the source and are kept apart here.

The values below come from PMC11855827, “High-Throughput Screening of Five Compound Libraries for Anthelmintic Activity and Toxicity Leads to the Discovery of Two Flavonoid Compounds” (International Journal of Molecular Sciences, 2025).

Consider `COc1cc(O)cc(O)c1C(=O)/C=C/c1ccccc1` [Cardamonin], for which the “Percentage of motility inhibition 0 h” value under setting [1] was found to be 0%. The “Percentage of motility inhibition 24 h” value under setting [2] was 13%.

Consider `C=C1CC[C@H]2O[C@]2(C)CC[C@@H]2[C@@H]1CC2(C)C` [Caryophyllene oxide], for which the “Percentage of motility inhibition 0 h” value under setting [1] worked out at 13%. For the same compound, the “Percentage of motility inhibition 24 h” value under setting [2] came to 13%.

With `CC(=O)O.CC(=O)O.CC[C@H](C)C[C@H](C)CCCCCCCCC(=O)N[C@H]1C[C@@H](O)[C@@H](NCCN)NC(=O)[C@@H]2[C@@H](O)CCN2C(=O)[C@H]([C@H](O)CCN)NC(=O)[C@H]([C@H](O)[C@@H](O)c2ccc(O)cc2)NC(=O)[C@@H]2C[C@@H](O)CN2C(=O)[C@H]([C@@H](C)O)NC1=O` [Caspofungin (Acetate)], under setting [1], the “Percentage of motility inhibition 0 h” value is recorded as 27%. Moreover, under setting [2], the “Percentage of motility inhibition 24 h” value is 4%.

With `CCC1=C[C@@H]2CN3CCc4c([nH]c5ccccc45)[C@@](C(=O)OC)(C2)[C@@H]13.O=C(O)C(O)C(O)C(=O)O` [Catharanthine (Tartrate)], where the note is “110 µM”, the “Percentage of motility inhibition 0 h” value is recorded as 0% and the “Percentage of motility inhibition 24 h” value was determined as 12%.

Consider `CCC1=C[C@@H]2CN3CCc4c([nH]c5ccccc45)[C@@](C(=O)OC)(C2)[C@@H]13` [Catharanthine], for which the “Percentage of motility inhibition 0 h” value under setting [1] is on record as 0%. Besides, under setting [2], the “Percentage of motility inhibition 24 h” value was determined as 0%.

`CC1(C)CC[C@]2(C(=O)O)CC[C@]3(C)C(=CC[C@@H]4[C@@]5(C)CC[C@H](O[C@@H]6OC[C@H](O)[C@H](O)[C@H]6O)[C@@](C)(CO)[C@@H]5CC[C@]43C)[C@@H]2C1` [Cauloside A]: the “Percentage of motility inhibition 0 h” value under setting [1] came out at 12%. For the same compound, the “Percentage of motility inhibition 24 h” value under setting [2] came to 24%.

Consider `CC1(C)CC[C@]2(C(=O)O)CC[C@]3(C)C(=CC[C@@H]4[C@@]5(C)CC[C@H](O[C@@H]6OC[C@H](O)[C@H](O)[C@H]6O[C@@H]6O[C@H](CO)[C@@H](O)[C@H](O)[C@H]6O)[C@@](C)(CO)[C@@H]5CC[C@]43C)[C@@H]2C1` [Cauloside C], for which the “Percentage of motility inhibition 0 h” value under setting [1] stood at 0%. Further, the “Percentage of motility inhibition 24 h” value under setting [2] was determined as 10%.

`Cn1nnnc1SCC1=C(C(=O)[O-])N2C(=O)[C@@H](NC(=O)[C@H](OC=O)c3ccccc3)[C@H]2SC1.[Na+]` [Cefamandole (nafate)]: under setting [1], the “Percentage of motility inhibition 0 h” value is 0%. The “Percentage of motility inhibition 24 h” value under setting [2] is listed as 0%.

In the case of `Cc1nnc(SCC2=C(C(=O)[O-])N3C(=O)[C@@H](NC(=O)Cn4cnnn4)[C@H]3SC2)s1.[Na+]` [Cefazolin (sodium)], the “Percentage of motility inhibition 0 h” value under setting [1] is recorded as 14%. Under setting [2], the “Percentage of motility inhibition 24 h” value stood at 0%.

Take `CO/N=C(\C(=O)N[C@@H]1C(=O)N2C(C(=O)OCOC(=O)C(C)(C)C)=C(/C=C\c3scnc3C)CS[C@H]12)c1csc(N)n1` [Cefditoren (Pivoxil)]: under setting [1], the “Percentage of motility inhibition 0 h” value worked out at 36%. In addition, under setting [2], the “Percentage of motility inhibition 24 h” value amounted to 1%.

For the compound `CO/N=C(\C(=O)N[C@@H]1C(=O)N2C(C(=O)O)=C(C[N+]3(C)CCCC3)CS[C@H]12)c1csc(N)n1.Cl.O.[Cl-]` [Cefepime (Dihydrochloride Monohydrate)], the “Percentage of motility inhibition 0 h” value under setting [1] was determined as 7%. In addition, the “Percentage of motility inhibition 24 h” value under setting [2] came out at 1%.

With `CO/N=C(\C(=O)N[C@@H]1C(=O)N2C(C(=O)OCOC(=O)C(C)(C)C)=C(C)CS[C@H]12)c1csc(N)n1.Cl` [Cefetamet pivoxil (hydrochloride)], the “Percentage of motility inhibition 0 h” value under setting [1] was 55%. For the same compound, under setting [2], the “Percentage of motility inhibition 24 h” value is on record as 17%.

For the compound `CO/N=C(\C(=O)N[C@@H]1C(=O)N2C(C(=O)O)=C(CSc3nnnn3C)CS[C@H]12)c1csc(N)n1.CO/N=C(\C(=O)N[C@@H]1C(=O)N2C(C(=O)O)=C(CSc3nnnn3C)CS[C@H]12)c1csc(N)n1.Cl` [Cefmenoxime (hydrochloride)], the “Percentage of motility inhibition 0 h” value under setting [1] came out at 15%. Besides, under setting [2], the “Percentage of motility inhibition 24 h” value came to 0%.

For the compound `CO[C@@]1(NC(=O)CSCC#N)C(=O)N2C(C(=O)[O-])=C(CSc3nnnn3C)CS[C@@H]21.[Na+]` [Cefmetazole (sodium)], under setting [1], the “Percentage of motility inhibition 0 h” value worked out at 7%. The “Percentage of motility inhibition 24 h” value under setting [2] is given as 25%.

As for `O=C([O-])C1=C(CSc2nnnn2CS(=O)(=O)[O-])CS[C@@H]2[C@H](NC(=O)[C@H](O)c3ccccc3)C(=O)N12.[Na+].[Na+]` [Cefonicid (sodium)], the “Percentage of motility inhibition 0 h” value under setting [1] is 0%. Further, the “Percentage of motility inhibition 24 h” value under setting [2] is listed as 2%.

As to `CO/N=C(\C(=O)N[C@@H]1C(=O)N2C(C(=O)O)=C(Cn3ccc(=N)n3CCO)CS[C@H]12)c1csc(N)n1.O=S(=O)(O)O` [Cefoselis (sulfate)], under setting [1], the “Percentage of motility inhibition 0 h” value is 8%. Further, the “Percentage of motility inhibition 24 h” value under setting [2] stood at 0%.

Regarding `CO/N=C(\C(=O)N[C@@H]1C(=O)N2C(C(=O)[O-])=C(COC(C)=O)CS[C@H]12)c1csc(N)n1.[Na+]` [Cefotaxime (sodium salt)], the “Percentage of motility inhibition 0 h” value under setting [1] is 30%. For the same compound, the “Percentage of motility inhibition 24 h” value under setting [2] is 34%.

Regarding `CN(C)CCn1nnnc1SCC1=C(C(=O)O)N2C(=O)[C@@H](NC(=O)Cc3csc(N)n3)[C@H]2SC1.Cl.Cl` [Cefotiam (hydrochloride)], the “Percentage of motility inhibition 0 h” value under setting [1] worked out at 66%. The “Percentage of motility inhibition 24 h” value under setting [2] is reported as 37%.

For the compound `CO[C@@]1(NC(=O)Cc2cccs2)C(=O)N2C(C(=O)[O-])=C(COC(N)=O)CS[C@@H]21.[Na+]` [Cefoxitin (sodium)], the “Percentage of motility inhibition 0 h” value under setting [1] is reported as 0%. Moreover, under setting [2], the “Percentage of motility inhibition 24 h” value is given as 0%.

Consider `CO/N=C(\C(=O)N[C@@H]1C(=O)N2C(C(=O)[O-])=C(C[n+]3ccn4ncccc43)CS[C@H]12)c1nsc(N)n1.Cl` [Cefozopran (hydrochloride)], for which, under setting [1], the “Percentage of motility inhibition 0 h” value is recorded as 10%. Besides, the “Percentage of motility inhibition 24 h” value under setting [2] is on record as 12%.

With `Cc1cc(O)c(C(=O)N[C@@H](C(=O)N[C@@H]2C(=O)N3C(C(=O)[O-])=C(CSc4nnnn4C)CS[C@H]23)c2ccc(O)cc2)cn1.[Na+]` [Cefpiramide (sodium)], the “Percentage of motility inhibition 0 h” value under setting [1] was determined as 0%. Moreover, the “Percentage of motility inhibition 24 h” value under setting [2] is on record as 7%.

`CO/N=C(\C(=O)N[C@@H]1C(=O)N2C(C(=O)[O-])=C(C[n+]3cccc4c3CCC4)CS[C@H]12)c1csc(N)n1.O=S(=O)(O)O` [Cefpirome (sulfate)]: under setting [1], the “Percentage of motility inhibition 0 h” value came to 13%. In addition, the “Percentage of motility inhibition 24 h” value under setting [2] amounted to 0%.

For `C/C=C/C1=C(C(=O)O)N2C(=O)[C@@H](NC(=O)[C@H](N)c3ccc(O)cc3)[C@H]2SC1.O` [Cefprozil (monohydrate)], the “Percentage of motility inhibition 0 h” value under setting [1] came to 12%. Besides, the “Percentage of motility inhibition 24 h” value under setting [2] was determined as 14%.

For the compound `NC(=O)c1cc[n+](CC2=C(C(=O)[O-])N3C(=O)[C@@H](NC(=O)[C@@H](c4ccccc4)S(=O)(=O)[O-])[C@H]3SC2)cc1.[Na+]` [Cefsulodin (sodium)], under setting [1], the “Percentage of motility inhibition 0 h” value is listed as 17%. Also, under setting [2], the “Percentage of motility inhibition 24 h” value is listed as 6%.

Regarding `Nc1nc(/C(=C/CC(=O)O)C(=O)N[C@@H]2C(=O)N3C(C(=O)O)=CCS[C@H]23)cs1.O.O` [Ceftibuten (dihydrate)], the “Percentage of motility inhibition 0 h” value under setting [1] came out at 19%. For the same compound, the “Percentage of motility inhibition 24 h” value under setting [2] is 5%.

For `CO/N=C(\C(=O)N[C@@H]1C(=O)N2C(C(=O)[O-])=C(CSC(=O)c3ccco3)CS[C@H]12)c1csc(N)n1.[Na+]` [Ceftiofur (sodium)], the “Percentage of motility inhibition 0 h” value under setting [1] is on record as 17%. Under setting [2], the “Percentage of motility inhibition 24 h” value stood at 1%.

With `CO/N=C(\C(=O)N[C@@H]1C(=O)N2C(C(=O)[O-])=CCS[C@H]12)c1csc(N)n1.[Na+]` [Ceftizoxime (sodium)], under setting [1], the “Percentage of motility inhibition 0 h” value worked out at 0%. Further, the “Percentage of motility inhibition 24 h” value under setting [2] is on record as 3%.

In the case of `CO/N=C(\C(=O)N[C@@H]1C(=O)N2C(C(=O)[O-])=C(CSc3nc(=O)c([O-])nn3C)CS[C@H]12)c1csc(N)n1.CO/N=C(\C(=O)N[C@@H]1C(=O)N2C(C(=O)[O-])=C(CSc3nc(=O)c([O-])nn3C)CS[C@H]12)c1csc(N)n1.O.O.O.O.O.O.O.[Na+].[Na+].[Na+].[Na+]` [Ceftriaxone (sodium salt)], where the note is “110 µM”, the “Percentage of motility inhibition 0 h” value is given as 25% and the “Percentage of motility inhibition 24 h” value is reported as 16%.

Regarding `CO/N=C(\C(=O)N[C@@H]1C(=O)N2C(C(=O)[O-])=C(COC(N)=O)CS[C@H]12)c1ccco1.[Na+]` [Cefuroxime (sodium)], the “Percentage of motility inhibition 0 h” value under setting [1] turned out to be 19%. Further, the “Percentage of motility inhibition 24 h” value under setting [2] turned out to be 17%.

Turning to `CC[C@H]1CN2CCc3cc(OC)c(OC)cc3[C@@H]2C[C@@H]1C[C@H]1NCCc2cc(O)c(OC)cc21.Cl.Cl` [Cephaeline (dihydrochloride)], under setting [1], the “Percentage of motility inhibition 0 h” value came out at 18%. Also, the “Percentage of motility inhibition 24 h” value under setting [2] is given as 4%.

In the case of `CC1=C(C(=O)O)N2C(=O)[C@@H](NC(=O)[C@H](N)c3ccccc3)[C@H]2SC1.O` [Cephalexin (monohydrate)], the “Percentage of motility inhibition 0 h” value under setting [1] is on record as 8%. Besides, under setting [2], the “Percentage of motility inhibition 24 h” value is 0%.

On to `CC(=O)OCC1=C(C(=O)[O-])N2C(=O)[C@@H](NC(=O)Cc3cccs3)[C@H]2SC1.[Na+]` [Cephalothin (sodium)], for which the “Percentage of motility inhibition 0 h” value under setting [1] is given as 9%. Also, the “Percentage of motility inhibition 24 h” value under setting [2] was determined as 11%.

With `COc1ccc2c(c[n+](C)c3c4cc5c(cc4ccc23)OCO5)c1OC.[Cl-]` [Chelerythrine (chloride)], the “Percentage of motility inhibition 0 h” value under setting [1] is on record as 17%. Further, the “Percentage of motility inhibition 24 h” value under setting [2] came to 22%.

On to `CC(=O)O.CC(=O)O.NC(=N\CCCCCC/N=C(N)/N=C(\N)Nc1ccc(Cl)cc1)/N=C(\N)Nc1ccc(Cl)cc1` [Chlorhexidine (diacetate)], for which, under setting [1], the “Percentage of motility inhibition 0 h” value stood at 38%. Also, the “Percentage of motility inhibition 24 h” value under setting [2] was found to be 62%.

With `N=C(NCCCCCCNC(=N)NC(=N)Nc1ccc(Cl)cc1)NC(=N)Nc1ccc(Cl)cc1.O=C(O)[C@H](O)[C@@H](O)[C@H](O)[C@H](O)CO.O=C(O)[C@H](O)[C@@H](O)[C@H](O)[C@H](O)CO` [Chlorhexidine (digluconate)], the “Percentage of motility inhibition 0 h” value under setting [1] was 39%. Moreover, the “Percentage of motility inhibition 24 h” value under setting [2] is 46%.

Consider `CN(C)[C@@H]1C(=O)C(C(N)=O)=C(O)[C@@]2(O)C(=O)C3=C(O)c4c(O)ccc(Cl)c4[C@@](C)(O)[C@H]3C[C@@H]12.Cl` [Chlortetracycline (hydrochloride)], for which the “Percentage of motility inhibition 0 h” value under setting [1] stood at 24%. Besides, the “Percentage of motility inhibition 24 h” value under setting [2] is listed as 5%.
